Measured values as given in ChEMBL document CHEMBL1153810, “Sesquiterpene lactones from the root tubers of Lindera aggregata” (J Nat Prod, 2009).
pEC50: −log10 of the molar value.

Tested on: HepG2
Assay: Hepatoprotective activity in human HepG2 cells assessed as inhibition of H2O2- induced oxidative damage after 3 hrs by leucocrstal violet dye treated 1 hr before H2O2 challenge
Assay type: functional, cell-based

Row | SMILES | pEC50
1 | C=C1CC=C[C@]2(C)C[C@]3(O)OC(=O)C(C)C3=C[C@@H]12 (some centres undefined) [HYDROXYLINDESTENOLIDE] | 4.37
2 | CC1=CC[C@@H](O)[C@]2(C)CC3(O)OC(=O)C(C)=C3[C@H](O)[C@@H]12 (some centres undefined) [LINDERAGALACTONE E] | 4.17
3 | C/C1=C\CCC2=C[C@@H](OC2=O)c2c(C)coc2C1 [LINDERALACTONE] | 4.01
4 | C/C1=C\CC[C@]23O[C@H]2[C@@H](OC3=O)c2c(C)coc2C1 [LINDERANE] | 3.78
